The values below are quoted from earlier work in US9681659B2, “Agrochemical formulation comprising encapsulated pesticide” (BASF SE, priority 2011, dated 2017).

≈ marks a conversion by molar mass, not a printed value.

Turning to `CC1=CC(=O)CC(C)(C)C1` [isoporone], the “solubility values (in water)” value (all data at 20° C., examples for aprotic, polar solvent B) was 15 mg/mL (≈ 109 mM). `COc1cc(C)c(C(=O)c2c(OC)ccc(Br)c2C)c(OC)c1OC` [metrafenon]: the solubilities in water (in water, examples for pesticide A) is 0.5 mg/L.
